Measurements: ChEMBL document CHEMBL5537164, “Discovery of Potent, Orally Bioavailable, Tricyclic NLRP3 Inhibitors” (J Med Chem, 2024)
In brackets after ≈: the same amount, converted by molar mass.

Tests used:
[1] = Apparent permeability from apical to basolateral side in MDCK cells by high-throughput assay; format: ADME, cell-based, Canis lupus familiaris; conditions: dog
[2] = Metabolic stability in human liver microsomes assessed as intrinsic clearance; format: ADME, Microsome; conditions: read-out: CLH
[3] = Equilibrium solubility of compound in DMSO at pH 6.8 by shake flask method; format: physicochemical
[4] = biological target: Nuclear factor NF-kappa-B complex (Homo sapiens, UniProt P19838+Q00653+Q04206); assay: Inhibition of NF-kappaB in PMA-differentiated human THP-1 cells assessed as reduction in TNF-alpha release preincubated with compound for 1 hrs followed by Pam3CSK4 stimulation and measured after 3 hrs by HTRF assay; format: cell-based
Chain of Nuclear factor NF-kappa-B complex (P19838 1-433 limits assumed): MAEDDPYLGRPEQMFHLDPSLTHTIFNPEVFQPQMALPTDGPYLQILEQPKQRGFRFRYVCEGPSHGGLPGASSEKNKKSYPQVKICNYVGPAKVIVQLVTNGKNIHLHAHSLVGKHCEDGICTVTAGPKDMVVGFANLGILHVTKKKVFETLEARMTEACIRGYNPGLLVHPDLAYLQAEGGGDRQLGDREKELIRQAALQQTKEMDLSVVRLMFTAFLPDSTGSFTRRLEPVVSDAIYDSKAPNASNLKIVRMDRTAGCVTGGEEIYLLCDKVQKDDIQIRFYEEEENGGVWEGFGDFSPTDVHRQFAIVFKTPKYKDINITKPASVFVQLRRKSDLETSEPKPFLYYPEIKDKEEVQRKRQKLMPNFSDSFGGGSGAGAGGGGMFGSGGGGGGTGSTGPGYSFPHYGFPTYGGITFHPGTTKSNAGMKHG
Chain of Nuclear factor NF-kappa-B complex (Q00653 1-454 limits assumed): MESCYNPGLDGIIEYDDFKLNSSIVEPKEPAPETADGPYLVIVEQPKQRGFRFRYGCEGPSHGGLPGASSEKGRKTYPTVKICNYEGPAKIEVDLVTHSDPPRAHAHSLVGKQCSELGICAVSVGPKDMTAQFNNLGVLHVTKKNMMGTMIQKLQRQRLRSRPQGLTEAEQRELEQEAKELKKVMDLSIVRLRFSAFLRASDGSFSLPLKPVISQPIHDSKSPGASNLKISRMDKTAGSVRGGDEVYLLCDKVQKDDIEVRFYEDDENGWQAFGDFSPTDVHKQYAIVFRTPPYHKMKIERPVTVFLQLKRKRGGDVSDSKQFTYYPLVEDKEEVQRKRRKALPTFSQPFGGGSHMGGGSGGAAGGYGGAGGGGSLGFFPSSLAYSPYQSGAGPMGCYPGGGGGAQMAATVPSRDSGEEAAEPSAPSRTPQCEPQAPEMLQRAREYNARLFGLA
Chain of Nuclear factor NF-kappa-B complex (Q04206 whole entry): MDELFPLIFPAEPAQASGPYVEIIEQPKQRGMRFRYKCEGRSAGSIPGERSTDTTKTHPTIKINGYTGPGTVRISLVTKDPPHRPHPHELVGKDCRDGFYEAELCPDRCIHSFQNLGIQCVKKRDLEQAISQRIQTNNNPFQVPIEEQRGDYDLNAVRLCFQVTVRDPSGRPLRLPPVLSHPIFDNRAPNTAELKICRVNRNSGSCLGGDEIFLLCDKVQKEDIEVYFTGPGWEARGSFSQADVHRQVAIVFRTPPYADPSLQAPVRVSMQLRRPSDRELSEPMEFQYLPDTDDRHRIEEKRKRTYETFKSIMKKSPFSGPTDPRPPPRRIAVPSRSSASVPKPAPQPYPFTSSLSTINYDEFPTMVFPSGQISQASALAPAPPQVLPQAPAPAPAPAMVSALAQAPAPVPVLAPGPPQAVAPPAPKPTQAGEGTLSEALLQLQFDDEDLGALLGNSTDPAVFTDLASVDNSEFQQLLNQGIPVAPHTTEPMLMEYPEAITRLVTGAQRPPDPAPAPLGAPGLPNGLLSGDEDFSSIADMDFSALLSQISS

[5] = Lipophilicity, logD of compound at pH 7.4; format: physicochemical; conditions: buffer
[6] = Metabolic stability in mouse liver microsomes assessed as intrinsic clearance; format: ADME, Microsome; conditions: read-out: CLH
[7] = Clearance in C57BL/6 mouse at 1 mg/kg, iv measured after 24 hrs by LC-MS/MS analysis; format: ADME, organism-based; conditions: in vivo
[8] = AUC (0 to infinity) in C57BL/6 mouse at 3 mg/kg, po measured after 24 hrs by LC-MS/MS analysis; format: ADME, organism-based; conditions: in vivo
[9] = Oral bioavailability in C57BL/6 mouse measured after 24 hrs by LC-MS/MS analysis; format: ADME, organism-based; conditions: in vivo
[10] = biological target: Voltage-gated inwardly rectifying potassium channel KCNH2 (Homo sapiens, UniProt Q12809); assay: Displacement of [3H]-dofetilide from human ERG; format: toxicity
Chain of Voltage-gated inwardly rectifying potassium channel KCNH2 (Q12809 whole entry): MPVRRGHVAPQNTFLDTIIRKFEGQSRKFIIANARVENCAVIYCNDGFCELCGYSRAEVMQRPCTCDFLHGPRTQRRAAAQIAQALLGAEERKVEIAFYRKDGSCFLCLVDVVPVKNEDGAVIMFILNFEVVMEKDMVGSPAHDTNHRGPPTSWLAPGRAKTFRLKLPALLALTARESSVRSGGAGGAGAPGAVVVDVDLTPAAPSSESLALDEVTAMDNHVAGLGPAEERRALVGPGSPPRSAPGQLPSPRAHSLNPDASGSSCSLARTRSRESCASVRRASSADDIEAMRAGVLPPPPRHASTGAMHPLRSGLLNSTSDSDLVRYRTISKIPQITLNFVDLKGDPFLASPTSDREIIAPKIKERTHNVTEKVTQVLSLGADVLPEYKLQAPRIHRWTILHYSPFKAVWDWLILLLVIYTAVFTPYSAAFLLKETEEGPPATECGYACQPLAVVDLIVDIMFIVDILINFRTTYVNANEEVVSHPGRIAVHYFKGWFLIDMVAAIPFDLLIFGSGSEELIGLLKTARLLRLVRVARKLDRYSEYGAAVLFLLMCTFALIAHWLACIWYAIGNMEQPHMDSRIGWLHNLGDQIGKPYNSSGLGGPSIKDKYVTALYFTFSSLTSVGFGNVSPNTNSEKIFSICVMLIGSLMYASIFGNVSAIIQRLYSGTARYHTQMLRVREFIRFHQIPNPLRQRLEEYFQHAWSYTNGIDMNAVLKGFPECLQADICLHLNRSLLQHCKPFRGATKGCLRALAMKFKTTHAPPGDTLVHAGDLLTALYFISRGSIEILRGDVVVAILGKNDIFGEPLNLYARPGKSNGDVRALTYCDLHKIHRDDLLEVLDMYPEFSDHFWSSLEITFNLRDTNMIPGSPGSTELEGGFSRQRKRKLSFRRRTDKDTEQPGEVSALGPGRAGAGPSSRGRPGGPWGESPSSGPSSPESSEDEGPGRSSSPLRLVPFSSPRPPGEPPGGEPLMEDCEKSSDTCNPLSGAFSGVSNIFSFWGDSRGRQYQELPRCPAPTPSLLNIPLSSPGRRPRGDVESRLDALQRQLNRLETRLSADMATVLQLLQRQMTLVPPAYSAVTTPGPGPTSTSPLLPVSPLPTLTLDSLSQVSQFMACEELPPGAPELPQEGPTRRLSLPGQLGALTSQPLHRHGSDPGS

Cytochrome P450 = assay: Drug metabolism in human liver microsomes assessed as CYP450-driven thiophene oxidation mediated metabolite formation by LC-MS/MS analysis; format: ADME, Microsome
[11] = Drug concentration in blood of C57BL/6 mouse model of acute peritonitis at 50 mg/kg, po preadministered with compound for 1 hrs followed by LPS stimulation for 2 hrs and measured 15 mins after ATP addition by HPLC-MS/MS analysis; format: ADME, organism-based; conditions: whole blood, read-out: Ct
[12] = In vivo inhibition of NLRP3 in LPS/ATP-induced C57BL/6 mouse model of acute peritonitis assessed as reduction in IL-1beta level at 50 mg/kg, po preadministered with compound for 1 hrs followed by LPS stimulation for 2 hrs and measured 15 mins after ATP addition by ELISA relative to control; format: functional; conditions: time 3.25 hrs
[13] = Metabolic stability in rat liver microsomes assessed as intrinsic clearance; format: ADME, Microsome; conditions: read-out: CLH

Compound	Papp A→B [1]	microsomal CLint [2]	solubility [3]	logD [5]	microsomal CLint [6]	also measured
CCc1nn(CC(=O)Nc2cccc(C(C)=O)c2)c(=O)c2cc3sccc3n12	41 ×10⁻⁶ cm/s	299 µL/min/mg	4 µM (≈ 1.58 µg/mL)			IC50 [4]: > 100 µM
CCc1nn(CC(=O)N(C)c2ccccc2)c(=O)c2cc3sccc3n12	19 ×10⁻⁶ cm/s	971 µL/min/mg	6 µM (≈ 2.2 µg/mL)			
CC(C)c1nn(CC(=O)NC2CCOCC2)c(=O)c2cc3sc(Cl)cc3n12		30 µL/min/mg	3 µM (≈ 1.23 µg/mL)	3	129 µL/min/mg	
O=C(Cn1nc(C2CC2)n2c(cc3sccc32)c1=O)Nc1cccnc1		76 µL/min/mg	26 µM (≈ 9.5 µg/mL)	2.7	464 µL/min/mg	
CC(C)c1nn(CC(=O)Nc2cccnc2)c(=O)c2cc3sc(Cl)cc3n12		44 µL/min/mg	10 µM (≈ 4.02 µg/mL)	4	124 µL/min/mg	clearance [7]: 16.5 mL/min/kg; AUC(0-inf) [8]: 3.75 µM·h; bioavailability [9]: 55%
CC(C)c1nn(CC(=O)Nc2cccnc2)c(=O)c2cc3sc(F)cc3n12		79 µL/min/mg	251 µM (≈ 96.7 µg/mL)	3.4	227 µL/min/mg	
CC(C)c1nn(CC(=O)N[C@@H]2CCCN(C)C2)c(=O)c2cc3sc(Cl)cc3n12	15 ×10⁻⁶ cm/s	59 µL/min/mg	> 1000 µM	2.4	364 µL/min/mg	IC50 [10]: > 30 µM; clearance [7]: 58 mL/min/kg; AUC(0-inf) [8]: 0.163 µM·h; bioavailability [9]: 7.8%
CCc1nn(CC(=O)Nc2cccnc2)c(=O)c2cc3sccc3n12	27 ×10⁻⁶ cm/s	63 µL/min/mg	21 µM (≈ 7.42 µg/mL)	2.6	412 µL/min/mg	
CC(C)c1nn(CC(=O)Nc2cccnc2)c(=O)c2cc3sccc3n12		144 µL/min/mg	19 µM (≈ 6.98 µg/mL)	3.1	490 µL/min/mg	Drug metabolism (Cytochrome P450): Metabolite_Detected
CCCc1nn(CC(=O)Nc2cccnc2)c(=O)c2cc3sccc3n12		101 µL/min/mg	3 µM (≈ 1.1 µg/mL)	3	> 1000 µL/min/mg	
CC(C)c1nn(CC(=O)N[C@@H]2CCCNC2)c(=O)c2cc3sc(Cl)cc3n12	3 ×10⁻⁶ cm/s	12 µL/min/mg	> 1000 µM	1	55 µL/min/mg	IC50 [10]: 26 µM; clearance [7]: 55.7 mL/min/kg; AUC(0-inf) [8]: 0.691 µM·h; bioavailability [9]: 27.6%
CCc1nn(CC(=O)Nc2ccccc2)c(=O)c2cc3sccc3n12	25 ×10⁻⁶ cm/s	269 µL/min/mg	2 µM (≈ 0.705 µg/mL)			
CC(C)(O)c1nn(CC(=O)Nc2cccnc2)c(=O)c2cc3sccc3n12		68 µL/min/mg	23 µM (≈ 8.82 µg/mL)	2.8	300 µL/min/mg	
CC(C)c1nn(CC(=O)N[C@@H]2CCCN(C)C2)c(=O)c2cc3scnc3n12		27 µL/min/mg	> 1000 µM	1.1	231 µL/min/mg	concentration at 3.25 h [11]: 113 nM; inhibition in vivo at 50 mg/kg [12]: 40%
CCc1nn(CC(=O)Nc2cccc(O)c2)c(=O)c2cc3sccc3n12	5.7 ×10⁻⁶ cm/s	405 µL/min/mg	4 µM (≈ 1.47 µg/mL)			
CCc1nn(CC(=O)NC2CCCNC2)c(=O)c2cc3sccc3n12 (stereo unspecified)	0.7 ×10⁻⁶ cm/s	< 10 µL/min/mg	> 1000 µM	-0.2	50 µL/min/mg	microsomal CLint [13]: 40 µL/min/mg
CCc1nn(CC(=O)Nc2ccncn2)c(=O)c2cc3sccc3n12	21 ×10⁻⁶ cm/s	69 µL/min/mg	7 µM (≈ 2.48 µg/mL)			
CC(C)(O)c1nn(CC(=O)N[C@H]2C[C@@](C)(O)C2)c(=O)c2cc3sc(Cl)cc3n12		< 10 µL/min/mg	36 µM (≈ 15.3 µg/mL)	2.8	33 µL/min/mg	concentration at 3.25 h [11]: 65 nM; inhibition in vivo at 50 mg/kg [12]: 30%
CCc1nn(CC(=O)NC)c(=O)c2cc3sccc3n12	26 ×10⁻⁶ cm/s	54 µL/min/mg	128 µM (≈ 37.2 µg/mL)			
O=C(Cn1ncn2c(cc3sccc32)c1=O)Nc1cccnc1		< 10 µL/min/mg	91 µM (≈ 29.6 µg/mL)	1.9	48 µL/min/mg	
